Test results published in ChEMBL document CHEMBL5725380, “Substituted biaryl compound” (2017).

Target: Prostaglandin E2 receptor EP2 subtype (Homo sapiens, UniProt P43116)
Test: Binding Assay: Measurement of EP2 receptor binding action was performed in accordance with the method of Abramovitz et al. (Biochimica et Biophysica Acta, 1483, 285 (2000)). A test compound dissolved in dimethyl sulfoxide (final concentration: 1.0 (V/V) %) and [3H]prostaglandin E2 (NET-428, manufactured by PerkinElmer) (final concentration: 10 nM) were added to a buffer solution (10 mM MES-KOH (pH 6.0), 10 mM MgCl2, 1 mM EDTA) in which 10 μg of a membrane fraction of HEK293 cells expressing human EP2 receptor (ES-562-M, manufactured by Euroscreen) was suspended, and then incubated at 30° C. for 60 minutes. The membrane fraction was recovered on glass fiber filter paper (GF/B, manufactured by Whatman) using a cell harvester (M30R, manufactured by Brandel), and after washing with a buffer solution (10 mM MES-KOH (pH 6.0), 10 mM MgCl2), radioactivity was measured with a liquid scintillation analyzer (2000CA, manufactured by Packard).
Type: cell membranes

Chain of Prostaglandin E2 receptor EP2 subtype (P43116 whole entry): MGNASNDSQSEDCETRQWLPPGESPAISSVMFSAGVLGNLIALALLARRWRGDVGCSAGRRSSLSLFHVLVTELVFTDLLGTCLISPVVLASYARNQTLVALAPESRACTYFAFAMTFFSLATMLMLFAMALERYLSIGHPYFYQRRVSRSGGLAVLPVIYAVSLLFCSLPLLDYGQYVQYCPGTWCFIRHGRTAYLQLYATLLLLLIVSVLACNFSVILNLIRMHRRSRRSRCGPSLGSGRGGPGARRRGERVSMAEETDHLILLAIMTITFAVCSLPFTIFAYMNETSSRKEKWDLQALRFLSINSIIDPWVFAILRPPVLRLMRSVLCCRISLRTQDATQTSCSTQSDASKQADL

Structure (SMILES)	Ki [nM]
CC#Cc1cccc(-c2ccc(CN(Cc3cccc(NCC(=O)O)n3)S(=O)(=O)c3cccc(F)c3)cc2)c1	1.4
CC#Cc1ccccc1-c1ccc(CN(Cc2cccc(NCC(=O)O)n2)S(=O)(=O)c2ccccn2)cc1	0.75
CC#Cc1ccc(-c2ccc(CN(Cc3cccc(NCC(=O)O)n3)S(=O)(=O)c3ccccn3)cc2)cc1	6.8
CCOc1ccccc1-c1ccc(CN(Cc2cccc(NCC(=O)O)n2)S(=O)(=O)c2ccccn2)cc1	2.6
O=C(O)CNc1cccc(CN(Cc2ccc(-c3ccc(Cl)cc3)cc2)S(=O)(=O)c2cccnc2)n1	> 10
Cc1cnc(-c2ccc(CN(Cc3cccc(NCC(=O)O)n3)S(=O)(=O)c3ccccn3)cc2)s1	> 10

Now from value to compound:

Ki [nM]	Structure (SMILES)
2.2	Cc1cccc(-c2ccc(CN(Cc3cccc(NCC(=O)O)n3)S(=O)(=O)c3ccccn3)cc2)c1
1.1	CCCc1cccc(-c2ccc(CN(Cc3cccc(NCC(=O)O)n3)S(=O)(=O)c3ccccn3)cc2)c1
1.2	COc1cccc(-c2ccc(CN(Cc3cccc(NCC(=O)O)n3)S(=O)(=O)c3ccccn3)cc2)c1
1.7	C=CCc1cccc(-c2ccc(CN(Cc3cccc(NCC(=O)O)n3)S(=O)(=O)c3ccccn3)cc2)c1
> 10	CCOc1ccc(-c2ccc(CN(Cc3cccc(NCC(=O)O)n3)S(=O)(=O)c3ccccn3)cc2)cc1
1.4	CCc1cccc(-c2ccc(CN(Cc3cccc(NCC(=O)O)n3)S(=O)(=O)c3ccccn3)cc2)c1
